Source: PMC10002517, “Inhibition of Transglutaminase 2 as a Therapeutic Strategy in Celiac Disease—In Vitro Studies in Intestinal Cells and Duodenal Biopsies” (International Journal of Molecular Sciences, 2023)

Legend:
[1] = target: T1, TG2 in the intestinal lamina propria (Homo sapiens, UniProt P21980); test: TG2 activity in cryosections of duodenal biopsies from CD patients (5BP, confocal microscopy); type: biochemical; conditions: 1 h before 5BP, mean ± SD, n = 6 patients
T1 construct: from tissue; host or cells: duodenal biopsies from celiac disease patients (unfixed 400 nm cryosections, lamina propria)
T1 sequence (P21980 1-687): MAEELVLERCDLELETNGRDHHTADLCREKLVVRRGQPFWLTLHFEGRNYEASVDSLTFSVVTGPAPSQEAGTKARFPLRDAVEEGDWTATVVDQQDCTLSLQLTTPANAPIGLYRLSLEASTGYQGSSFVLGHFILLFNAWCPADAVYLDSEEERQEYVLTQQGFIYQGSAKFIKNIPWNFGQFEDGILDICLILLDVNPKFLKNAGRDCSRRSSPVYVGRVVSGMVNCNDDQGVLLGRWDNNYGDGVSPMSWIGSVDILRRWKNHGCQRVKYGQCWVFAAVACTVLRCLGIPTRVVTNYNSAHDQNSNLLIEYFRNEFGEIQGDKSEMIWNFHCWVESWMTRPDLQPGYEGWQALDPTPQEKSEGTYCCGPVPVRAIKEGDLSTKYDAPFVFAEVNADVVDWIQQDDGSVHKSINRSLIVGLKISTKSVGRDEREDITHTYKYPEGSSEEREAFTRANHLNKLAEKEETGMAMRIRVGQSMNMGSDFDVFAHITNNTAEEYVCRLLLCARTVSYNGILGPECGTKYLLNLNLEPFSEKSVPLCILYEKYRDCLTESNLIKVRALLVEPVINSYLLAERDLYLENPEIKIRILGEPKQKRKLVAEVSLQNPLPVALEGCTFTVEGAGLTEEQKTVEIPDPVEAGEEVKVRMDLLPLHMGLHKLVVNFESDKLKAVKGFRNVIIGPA
Procedure: For immunofluorescence microscopic investigation of transglutaminase activity, only biopsies with minor macroscopic inflammatory signs were used. After endoscopy, biopsies were immediately washed three times in PBS and cryopreserved in polyvinylpyrrolidone sucrose at 4 °C overnight. Biopsies were mounted on specimen holders using Tissue-Tek O.C.T (Sakura Finetek, Staufen im Breisgau, Germany) compound and frozen in liquid nitrogen. For evaluation of transglutaminase activity by the post-embedding procedure, 400 nm cryosections were obtained using a cryo-ultramicrotome (Leica EM UC6, Leica, Wetzlar, Germany) and mounted on class cover slides. After three brief washes with PBS, tissue sections were incubated with the indicated concentrations of the inhibitors for 1 h in tris buffer. Then, the TG2 substrate 5BP was incubated for 1 h at 37 °C in tris buffer containing DTT at the indicated concentration. Slides were washed three times in PBS, fixed in 4% paraformaldehyde (10 min), permeabilized with 0.5% Triton (10 min) and incubated with blocking solution (0.1% cold water fish skin gelatin + 5% BSA + 5% goat serum, 10 min). Afterwards, a rabbit polyclonal antibody directed against human TG2 (Kan5, kindly provided by Dr T. Mothes, Institute of Laboratory Medicine, University Hospital Leipzig, Germany) was applied at 1:200 dilution in blocking solution overnight at 4 °C. After three washing steps (each 5 min) with PBS, Alexa Fluor-555-conjugated secondary antibody (goat-anti-rabbit, 1:200, Thermo Fisher Scientific) and Alexa Fluor-488-conjugated streptavidin (2 µg/mL, Thermo Fisher Scientific) were incubated at room temperature in the dark for 1 h. After three washes with PBS, samples were covered in ProLong Gold antifade mountant (Thermo Fisher Scientific) and sealed with clear nail polish. Sealed slides were stored in the dark at 4 °C until microscopy.
Imaging was done using a confocal laser scanning microscope (TE2000-E, Nikon, Langen, Germany) and a 60× Plan Apo (NA 1.41) immersion oil objective. The detailed acquisition settings and the corresponding macro (Image J [46]) for image processing can be accessed in the Supplementary Materials methods (S1). Five images per patient where quantified. For quantitation, mean fluorescence intensity of TG2 activity (488 nm channel) was normalized to TG2 expression (555 nm channel) within the intestinal lamina propria.

[2] = system: transepithelial passage of P56-88 in Caco-2 cells; test: Transepithelial transport of promofluor-conjugated gliadin peptide P56-88 across Caco-2 monolayers (fluorometry); type: cell-based, human; conditions: 3 h; for transepithelial passage of P56-88 (relative basal fluorescence): 7 µg/mL peptide apical in HBSS, normalized to no inhibitor, mean ± SD, n = 3
Procedure: Transepithelial transport of immunogenic and toxic gliadin peptides were examined in Caco-2 cells 7–14 days after confluency. Caco-2 cells were seeded on semi-permeable transwell supports (ThinCert, culture surface: 33.6 mm², pore size: 0.4 µm) in 24-well plates (Greiner Bio One, Pleidelsheim, Germany). Prior to the transport experiments, the integrity of the cell monolayer was tested by measuring the transepithelial electric resistance (TEER) using a volt-ohm meter (Millipore, Schwalbach, Germany). Monolayers with insufficient TEER (<350 Ω/cm^2) were omitted. The synthesis and purification of promofluor-conjugated gliadin peptides were described elsewhere. Cells were either incubated with the immunogenic peptide P56-88 ([…]) or the toxic gliadin peptide P31-43 (LGQQQPFPPQQPY), 7 µg/mL each, in Hank’s balanced salt solution (HBSS) for 3 h. To investigate the role of TG2 on the transport of gliadin peptides, incubation was performed in the presence of ERW1041 and PX-12. After 3 h, basal and apical supernatants were collected, and the relative fluorescence of the basal compartment was quantified using a FLUOstar Optima (BMG Labtech) microplate reader. Background subtraction was performed against conditions, where no labeled peptides were used. Normalization was performed against conditions, where no inhibitors were used.

[3] = target: T2, extracellular TG2 on Caco-2 cells (Homo sapiens, UniProt P21980); test: Extracellular TG2 activity on confluent Caco-2 cell monolayers (5BP cross-linking); type: cell-based; conditions: n = 4; for reduction of TG2 activity on the cell surface: IFN-γ-stimulated Caco-2 cells, 5BP 3 h
T2 construct: endogenous in cells; host or cells: Caco-2 (differentiated; IFN-γ-stimulated in the monolayer assay)
T2 sequence (P21980 1-687): T1 sequence (P21980 1-687)
Procedure: The method was adapted from Yi et al.. To induce TG2 expression, Caco-2 cells were stimulated with IFN-γ 1000 IU/mL for 48 h. Then, cells were washed three times with warm PBS and incubated with the substrate 5BP for 3 h at 37 °C in 50 mM Tris and 1 mM EDTA (pH 7.5). The substances ERW1041, PX-12 and DTT were added to this solution when indicated. After incubation, cells were washed three times with PBS, fixed with 4% paraformaldehyde for 10 min and blocked with 5% BSA in PBS at 4 °C overnight. Then, cells were incubated at room temperature with streptavidin-Alexa488 (Thermo Scientific, 4 µg/mL) in 5% BSA in the dark for 1 h, followed by three washes with PBS. Fluorometric quantitation was conducted using a FLUOstar Optima microplate reader (BMG Labtech, filter settings: excitation 485 nm, emission 525 nm). Manual gain adjustment was performed, setting the well with the most intense signal as 95%. In all experiments, data were background subtracted against a control without 5BP substrate.

[4] = 100 µM inhibitor, untreated 0.94 ± 0.26 (ERW1041) or 0.91 ± 0.28 (PX-12)

In the case of O=C(NC[C@@H]1CC(Br)=NO1)[C@@H]1CCCN1C(=O)OCc1cnc2ccccc2c1 [ERW1041], the “TG2 activity normalized against TG2 expression in the lamina propria” value (“TG2 activity normalized” for short) ([1]; 1 µM inhibitor, untreated 0.94 ± 0.26) is reported as 0.58 ± 0.27, the “TG2 activity normalized” value [1, 4] is reported as 0.31 ± 0.17 and the “transepithelial passage of P56-88 (relative basal fluorescence)” value ([2]; 1 µM inhibitor) is reported as 33 ± 22%. The “transepithelial passage of P56-88 (relative basal fluorescence)” value ([2]; 100 µM inhibitor) was 24 ± 16%, the “reduction of TG2 activity on the cell surface” value ([3]; 10 µM) was “about 32%” and the “reduction of TG2 activity on the cell surface” value ([3]; 100 µM) was roughly 70%.
With CCC(C)SSc1ncc[nH]1 (stereo not drawn) [PX-12, 2-[(1-methylpropyl)dithio]-1H-imidazole] the “TG2 activity normalized” value [1, 4] was 0.44 ± 0.21, the “effect on the epithelial translocation of P56-88” value [2] was “no significant effect” and the “inhibition of TG2 on confluent Caco-2 monolayers” value ([3]; concentrations between 10 nM and 100 µM) was “did not observe any significant inhibition of TG2”.
